Measured values reported in ChEMBL document CHEMBL1151254, “A new anti-HIV alkaloid, drymaritin, and a new C-glycoside flavonoid, diandraflavone, from Drymaria diandra” (J Nat Prod, 2004).
Converted amounts (≈) assume the structure as drawn.

Experiments:
[1] = system: Neutrophil; test: Inhibition of fMLP/CB-stimulated superoxide anion generation in human neutrophils; type: functional, cell-based
[2] = system: Human immunodeficiency virus; test: Antiviral activity against HIV in human H9 cells; type: functional, organism-based; details: Human immunodeficiency virus 1, H9

Row | SMILES | IC50 [1] | EC50 [2]
1 | COc1cc2oc(-c3ccc([C@@H]4O[C@H](CO)[C@@H](O)[C@H](O)[C@H]4O)cc3)cc(=O)c2c(O)c1[C@H]1C[C@@H](O)[C@@H](O)[C@@H](C)O1 [DIANDRAFLAVONE A] | 10 µg/mL (≈ 17.8 µM) | –
2 | COc1cn2c3ccccc3c3ccnc(c1=O)c32 [DRYMARITIN] | – | 0.699 µg/mL (≈ 2.79 µM)
3 | COc1cnc2ccc(=O)n3c4ccccc4c1c23 | – | 20.6 µg/mL (≈ 82.3 µM)
